Data published in PubChem BioAssay (NCI).
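Exposure lasted 48 hours, with cells grown in 96-well plates and compounds tested at five concentrations. GI50 is the concentration that inhibits growth by half. Definition used: TGI = concentration required for complete inhibition of growth.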

Tests used:
Test in all cases: NCI anticancer screen, dose series, 48 h
786-0 renal = test system: 786-0 renal
A498 renal = test system: A498 renal
A549 NSCLC = test system: A549 NSCLC
ACHN renal = test system: ACHN renal
BT-549 breast = test system: BT-549 breast
CAKI-1 renal = test system: CAKI-1 renal
CCRF-CEM leukemia = test system: CCRF-CEM leukemia
COLO 205 colon = test system: COLO 205 colon
DU-145 prostate = test system: DU-145 prostate
HCC-2998 colon = test system: HCC-2998 colon
HCT-116 colon = test system: HCT-116 colon
HCT-15 colon = test system: HCT-15 colon
HL-60(TB) leukemia = test system: HL-60(TB) leukemia
HOP-92 NSCLC = test system: HOP-92 NSCLC
HS 578T breast = test system: HS 578T breast
HT29 colon = test system: HT29 colon
K-562 leukemia = test system: K-562 leukemia
KM12 colon = test system: KM12 colon
LOX IMVI melanoma = test system: LOX IMVI melanoma
M14 melanoma = test system: M14 melanoma
MALME-3M melanoma = test system: MALME-3M melanoma
MCF7 breast = test system: MCF7 breast
MDA-MB-231 breast = test system: MDA-MB-231 breast
MDA-MB-435 = test system: MDA-MB-435
MOLT-4 leukemia = test system: MOLT-4 leukemia
NCI-H226 lung = test system: NCI-H226 lung
NCI-H23 lung = test system: NCI-H23 lung
NCI-H460 lung = test system: NCI-H460 lung
NCI-H522 lung = test system: NCI-H522 lung
NCI/ADR-RES ovarian = test system: NCI/ADR-RES ovarian
OVCAR-3 ovarian = test system: OVCAR-3 ovarian
OVCAR-4 ovarian = test system: OVCAR-4 ovarian
OVCAR-5 ovarian = test system: OVCAR-5 ovarian
OVCAR-8 ovarian = test system: OVCAR-8 ovarian
PC-3 prostate = test system: PC-3 prostate
RPMI-8226 leukemia = test system: RPMI-8226 leukemia
RXF 393 renal = test system: RXF 393 renal
SF-268 CNS = test system: SF-268 CNS
SF-295 CNS = test system: SF-295 CNS
SF-539 CNS = test system: SF-539 CNS
SK-MEL-2 melanoma = test system: SK-MEL-2 melanoma
SK-MEL-28 melanoma = test system: SK-MEL-28 melanoma
SK-MEL-5 melanoma = test system: SK-MEL-5 melanoma
SK-OV-3 ovarian = test system: SK-OV-3 ovarian
SN12C renal = test system: SN12C renal
SNB-19 CNS = test system: SNB-19 CNS
SNB-75 CNS = test system: SNB-75 CNS
SR leukemia = test system: SR leukemia
SW-620 colon = test system: SW-620 colon
T-47D breast = test system: T-47D breast
TK-10 renal = test system: TK-10 renal
U251 CNS = test system: U251 CNS
UACC-257 melanoma = test system: UACC-257 melanoma
UACC-62 melanoma = test system: UACC-62 melanoma
UO-31 renal = test system: UO-31 renal

Q: Which GI50 (786-0 renal) does the source give for `Nc1c(C(=O)Nc2cccc(C(F)(F)F)c2)sc2nc3c(cc12)CCCCC3` here?
A: 1.58 µM

Q: And the TGI (786-0 renal)?
A: 3.13 µM

Q: And the GI50 (A498 renal)?
A: 1.53 µM

Q: What about the TGI (A498 renal) of the same molecule?
A: 7.08 µM

Q: And the GI50 (A549 NSCLC)?
A: 2.25 µM

Q: What about the TGI (A549 NSCLC) of the same molecule?
A: 11 µM

Q: And the GI50 (ACHN renal)?
A: 1.56 µM

Q: And the TGI (ACHN renal)?
A: 3.73 µM

Q: And the GI50 (BT-549 breast)?
A: 1.7 µM

Q: And the TGI (BT-549 breast)?
A: 6.33 µM

Q: What about the GI50 (CAKI-1 renal) of the same molecule?
A: 2.08 µM

Q: And the TGI (CAKI-1 renal)?
A: 10.1 µM

Q: And the GI50 (CCRF-CEM leukemia)?
A: 5.56 µM

Q: What about the TGI (CCRF-CEM leukemia) of the same molecule?
A: > 100 µM

Q: And the GI50 (COLO 205 colon)?
A: 11.7 µM

Q: And the TGI (COLO 205 colon)?
A: > 100 µM

Q: And the GI50 (DU-145 prostate)?
A: 4.81 µM

Q: And the TGI (DU-145 prostate)?
A: 28.4 µM

Q: What about the GI50 (HCC-2998 colon) of the same molecule?
A: 31 µM

Q: What about the TGI (HCC-2998 colon) of the same molecule?
A: > 100 µM

Q: And the GI50 (HCT-116 colon)?
A: 1.62 µM

Q: What about the TGI (HCT-116 colon) of the same molecule?
A: 4.18 µM

Q: What about the GI50 (HCT-15 colon) of the same molecule?
A: 10.7 µM

Q: And the TGI (HCT-15 colon)?
A: > 100 µM

Q: What about the GI50 (HL-60(TB) leukemia) of the same molecule?
A: 15.6 µM

Q: What about the TGI (HL-60(TB) leukemia) of the same molecule?
A: > 100 µM

Q: And the GI50 (HOP-92 NSCLC)?
A: 1.82 µM

Q: And the TGI (HOP-92 NSCLC)?
A: 6.23 µM

Q: And the GI50 (HS 578T breast)?
A: 3.8 µM

Q: What about the TGI (HS 578T breast) of the same molecule?
A: 30.4 µM

Q: What about the GI50 (HT29 colon) of the same molecule?
A: 7.06 µM

Q: And the TGI (HT29 colon)?
A: > 100 µM

Q: And the GI50 (K-562 leukemia)?
A: 5.42 µM

Q: What about the TGI (K-562 leukemia) of the same molecule?
A: 29.7 µM

Q: What about the GI50 (KM12 colon) of the same molecule?
A: 5.33 µM

Q: What about the TGI (KM12 colon) of the same molecule?
A: > 100 µM

Q: What about the GI50 (LOX IMVI melanoma) of the same molecule?
A: 3.59 µM

Q: And the TGI (LOX IMVI melanoma)?
A: 58 µM

Q: And the GI50 (M14 melanoma)?
A: 4.15 µM

Q: What about the TGI (M14 melanoma) of the same molecule?
A: 41.5 µM

Q: And the GI50 (MALME-3M melanoma)?
A: 3 µM

Q: What about the TGI (MALME-3M melanoma) of the same molecule?
A: 9.49 µM

Q: And the GI50 (MCF7 breast)?
A: 2.35 µM

Q: And the TGI (MCF7 breast)?
A: 13.6 µM

Q: And the GI50 (MDA-MB-231 breast)?
A: 4.4 µM

Q: And the TGI (MDA-MB-231 breast)?
A: 22.7 µM

Q: And the GI50 (MDA-MB-435)?
A: 2.53 µM

Q: What about the TGI (MDA-MB-435) of the same molecule?
A: 63.1 µM

Q: And the GI50 (MOLT-4 leukemia)?
A: 15 µM

Q: What about the TGI (MOLT-4 leukemia) of the same molecule?
A: 51.6 µM

Q: What about the GI50 (NCI-H226 lung) of the same molecule?
A: 1.57 µM

Q: What about the TGI (NCI-H226 lung) of the same molecule?
A: 16 µM

Q: And the GI50 (NCI-H23 lung)?
A: 1.72 µM

Q: What about the TGI (NCI-H23 lung) of the same molecule?
A: 10.9 µM

Q: What about the GI50 (NCI-H460 lung) of the same molecule?
A: 2.61 µM

Q: And the TGI (NCI-H460 lung)?
A: 11.4 µM

Q: And the GI50 (NCI-H522 lung)?
A: 2.52 µM

Q: What about the TGI (NCI-H522 lung) of the same molecule?
A: 17.7 µM

Q: What about the GI50 (NCI/ADR-RES ovarian) of the same molecule?
A: 3.17 µM

Q: What about the TGI (NCI/ADR-RES ovarian) of the same molecule?
A: 22.9 µM

Q: And the GI50 (OVCAR-3 ovarian)?
A: 2.84 µM

Q: And the TGI (OVCAR-3 ovarian)?
A: 11.5 µM

Q: And the GI50 (OVCAR-4 ovarian)?
A: 1.21 µM

Q: What about the TGI (OVCAR-4 ovarian) of the same molecule?
A: 3.9 µM

Q: What about the GI50 (OVCAR-5 ovarian) of the same molecule?
A: 3.43 µM

Q: What about the TGI (OVCAR-5 ovarian) of the same molecule?
A: 17.3 µM

Q: And the GI50 (OVCAR-8 ovarian)?
A: 3.49 µM

Q: And the TGI (OVCAR-8 ovarian)?
A: 19.8 µM

Q: What about the GI50 (PC-3 prostate) of the same molecule?
A: 3.21 µM

Q: What about the TGI (PC-3 prostate) of the same molecule?
A: 34.2 µM

Q: And the GI50 (RPMI-8226 leukemia)?
A: 4.32 µM

Q: And the TGI (RPMI-8226 leukemia)?
A: 35.5 µM

Q: What about the GI50 (RXF 393 renal) of the same molecule?
A: 1.84 µM

Q: And the TGI (RXF 393 renal)?
A: 4.86 µM

Q: What about the GI50 (SF-268 CNS) of the same molecule?
A: 2.99 µM

Q: And the TGI (SF-268 CNS)?
A: 16.2 µM

Q: And the GI50 (SF-295 CNS)?
A: 2.2 µM

Q: What about the TGI (SF-295 CNS) of the same molecule?
A: 12.2 µM

Q: And the GI50 (SF-539 CNS)?
A: 1.94 µM

Q: What about the TGI (SF-539 CNS) of the same molecule?
A: 4.48 µM

Q: And the GI50 (SK-MEL-2 melanoma)?
A: 3.16 µM

Q: And the TGI (SK-MEL-2 melanoma)?
A: 19.3 µM

Q: And the GI50 (SK-MEL-28 melanoma)?
A: 3.73 µM

Q: And the TGI (SK-MEL-28 melanoma)?
A: 23.6 µM

Q: And the GI50 (SK-MEL-5 melanoma)?
A: 1.18 µM

Q: And the TGI (SK-MEL-5 melanoma)?
A: 12 µM

Q: What about the GI50 (SK-OV-3 ovarian) of the same molecule?
A: 1.85 µM

Q: What about the TGI (SK-OV-3 ovarian) of the same molecule?
A: 4.36 µM

Q: What about the GI50 (SN12C renal) of the same molecule?
A: 3.41 µM

Q: And the TGI (SN12C renal)?
A: 19.3 µM

Q: What about the GI50 (SNB-19 CNS) of the same molecule?
A: 4.24 µM

Q: And the TGI (SNB-19 CNS)?
A: 19.8 µM

Q: What about the GI50 (SNB-75 CNS) of the same molecule?
A: 1.74 µM

Q: And the TGI (SNB-75 CNS)?
A: 3.93 µM

Q: What about the GI50 (SR leukemia) of the same molecule?
A: 4.03 µM

Q: And the TGI (SR leukemia)?
A: 21.7 µM

Q: What about the GI50 (SW-620 colon) of the same molecule?
A: 6.42 µM

Q: What about the TGI (SW-620 colon) of the same molecule?
A: > 100 µM

Q: And the GI50 (T-47D breast)?
A: 1.55 µM

Q: And the TGI (T-47D breast)?
A: 8.31 µM

Q: What about the GI50 (TK-10 renal) of the same molecule?
A: 1.83 µM

Q: What about the TGI (TK-10 renal) of the same molecule?
A: 4.47 µM

Q: And the GI50 (U251 CNS)?
A: 2.2 µM

Q: And the TGI (U251 CNS)?
A: 7.98 µM

Q: And the GI50 (UACC-257 melanoma)?
A: 3.64 µM

Q: And the TGI (UACC-257 melanoma)?
A: 37.4 µM

Q: What about the GI50 (UACC-62 melanoma) of the same molecule?
A: 2.69 µM

Q: What about the TGI (UACC-62 melanoma) of the same molecule?
A: 16.7 µM

Q: And the GI50 (UO-31 renal)?
A: 1.64 µM

Q: What about the TGI (UO-31 renal) of the same molecule?
A: 4.88 µM
